# Entries after “also recorded” stand apart in the source; their conditions may differ.
# Key:
# hP2X7R = target: T1, hP2X7R (Homo sapiens, UniProt Q99572); test: PET imaging in rats locally overexpressing hP2X7R in right striatum; assay type: in vivo, rat; conditions: 30 mg·kg^−1 s.c., 45 min prior to tracer injection
# T1 construct: 3xFLAG (3flag); expressed in transfected cells; host or cells: rat striatum (female Wistar rats), transduced in vivo with the AAV vector rAAV_3flag-hP2X7R
# T1 sequence (Q99572 1-595): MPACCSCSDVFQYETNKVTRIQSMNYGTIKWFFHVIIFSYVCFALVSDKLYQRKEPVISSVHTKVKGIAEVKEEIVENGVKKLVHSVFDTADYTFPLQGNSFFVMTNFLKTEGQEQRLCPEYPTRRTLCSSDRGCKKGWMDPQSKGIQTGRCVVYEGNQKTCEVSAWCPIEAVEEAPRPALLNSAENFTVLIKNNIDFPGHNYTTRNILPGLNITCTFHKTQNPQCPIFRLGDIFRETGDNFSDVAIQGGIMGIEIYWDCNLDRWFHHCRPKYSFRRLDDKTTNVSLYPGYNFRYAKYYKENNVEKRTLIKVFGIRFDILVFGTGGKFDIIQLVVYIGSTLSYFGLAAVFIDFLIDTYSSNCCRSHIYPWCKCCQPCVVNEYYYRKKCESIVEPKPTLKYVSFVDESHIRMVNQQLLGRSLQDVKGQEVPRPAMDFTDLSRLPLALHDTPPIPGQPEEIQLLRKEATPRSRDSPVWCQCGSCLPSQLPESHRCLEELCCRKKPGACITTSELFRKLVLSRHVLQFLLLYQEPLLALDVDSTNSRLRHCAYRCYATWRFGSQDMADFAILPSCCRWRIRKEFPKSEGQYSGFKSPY
# Method: Uptake of [^11C]SMW139 was 1.5-fold higher in the right striatum compared with the contralateral striatum at 4–15 min p.i. (n = 3; Fig. 6A,B, and Supplementary Figure S5, 5 weeks after vector injection). […] (2.85 ± 0.69 vs. 2.30 ± 0.36 in contralateral striatum) throughout the remainder of the scanning time.
# Female rats were injected with the hP2X7R expressing vector in the right striatum, and eGFP expressing vector in the left striatum, which is described in detail in the Supplementary Information. […] To confirm stable expression of hP2X7R during the time period in which PET scanning studies were conducted, autoradiography experiments were performed both prior to and following PET experiments. In a dedicated small animal PET scanner (nanoPET, Mediso Ltd.), 60 min dynamic PET scans were acquired immediately after intravenous administration of 16–20 MBq of [^11C]SMW139. […] 45 min prior to tracer injection. After data reconstruction (details in Supplementary Information), images were analysed using the freely available AMIDE software (version 0.9.2; http://amide.sourceforge.net). ROIs were drawn around ipsi- and contralateral striata. Results are expressed as standardised uptake values (SUVs) and error bars indicate standard deviation.
# Stereotactic injection of viral vector […]
# to a 10 µL Hamilton syringe. […]
# dorsoventral -0.64 cm relative to bregma. […]
# minutes before removing it slowly.
# Rats were sacrificed for in
# Dynamic PET imaging was performed using dedicated small animal NanoPET/CT and NanoPET/MR scanners (Mediso Ltd., Budapest, Hungary) which are equipped with identical PET components. […]
# anaesthetised with 4% and 2% isoflurane in oxygen (1 L·min-1) for induction and maintenance, respectively. Rats were positioned on the scanner bed and their respiratory rate was monitored during the entire scan, and anaesthesia was adjusted whenever required. Dynamic PET scans were acquired immediately after intravenous (i.v.) administration of 16-20 MBq of [11C]SMW139 via the tail vein. For […]
# hydroxypropyl)-β-cyclodextrin in water for injection 45 min prior to tracer injection. PET scans were acquired in list mode and rebinned into the following frame sequence: 4 × 5, 4 x 10, 2 x 30, 3x 60, 2 x 300, 1 x 600, 1 x 900 and 1 x 1200 s. Reconstruction was performed using a fully 3-dimensional reconstruction algorithm (Tera-TomoTM, Mediso Ltd.) with 4 iterations and 6 subsets, and an isotropic 0.4 mm voxel dimension. Images were analysed using the freely available AMIDE software (version 0.9.2; http://amide.sourceforge.net). 3D ellipsoid ROIs (dimensions x = 3.4 mm, y = 3.6 mm, z = 2.9 […]
# mm) were drawn within ipsi- and contralateral striata. Results are expressed as standardised uptake values (SUVs) and error bars indicate standard deviation. SUV were calculated as follows, with cimg in MBq/mL, injected dose in MBq and bodyweight in kg:
# An unpaired two-tailed t-test was used for statistical analysis of PET data, which was performed using […]
# allowed to recover for 1 week after scanning. After 1 week of recovery following the final scan (12 weeks after stereotactic vector injection) animals were sacrificed, and brains were excised and stored […]
# Extended single microdose toxicity study
# A single microdose toxicity study according to EMEA guideline EMA/CPMP/ICH/286/1995 (December 2009) was performed in healthy Wistar rats at a 1000 times higher dose than the maximal dose […]
# minimum specific activity of 18.5 GBq·µmol-1). Animals were allowed to acclimatise for 10 days, group-housed and in an enriched environment with food and water available ad libitum, and with a 12-hour light-dark cycle in a temperature controlled room.
# P2X7R = target: T2, P2X7R (Homo sapiens, UniProt Q99572); test: In vitro autoradiography on post mortem human brain tissue (AD patients and controls); assay type: binding; conditions: blocker 10 µM, AD patients and controls
# T2 construct: Snap frozen human post-mortem; tissue The Netherlands Brain Bank; host or cells: post mortem human temporal cortex (AD patients and non-neurological controls)
# T2 sequence (Q99572 1-595): T1 sequence (Q99572 1-595)
# human P2X7R = target: human P2X7R; parameters: method as in PMID 28841278; conditions: cited from earlier work
SMILES,Effect of pre-treatment on [^11C]SMW139 uptake/binding in rAAV_3flag-hP2X7R striatum (hP2X7R),Blocking of [^11C]SMW139 binding in post mortem human brain tissue (P2X7R),Ki (human P2X7R) [nM]
"O=C(NCC1(N2CCN(c3ccccc3)CC2)CCOCC1)c1cccnc1Sc1ccccc1 [JNJ-47965567, reference compound]",down to baseline levels; also recorded: significantly decreased,fully blocked; also recorded: virtually complete blocking,–
COc1ccc(Cl)c(C(=O)NCC23CC4CC(CC(C4)C2)C3)c1 [compound 1],–,–,9
COc1ccc(Cl)c(C(=O)NCC23CC4CC(CC(F)(C4)C2)C3)c1 [compound 2],–,–,22
COc1ccc(Cl)c(C(=O)NCC23CC4CC(F)(CC(F)(C4)C2)C3)c1 [compound 3],–,–,23

# From publication PMC5920098, “Identification of the allosteric P2X7 receptor antagonist [^11C]SMW139 as a PET tracer of microglial activation” (Scientific Reports, 2018)
